# Where “and” joins values, the source holds several entries; their conditions need not be identical. Identical values can stand only once.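 The compound was tested at five concentrations on cells cultured in 96-well plates, with a 48-hour exposure period. GI50 = concentration required for 50% inhibition of growth. TGI is the concentration that stops growth completely.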
# Assays:
# Assay in all cases: NCI-60 cell line screen, 48 h
# A549 NSCLC = tested on: A549 NSCLC
# BT-549 breast = tested on: BT-549 breast
# CCRF-CEM leukemia = tested on: CCRF-CEM leukemia
# EKVX NSCLC = tested on: EKVX NSCLC
# HCC-2998 colon = tested on: HCC-2998 colon
# MALME-3M melanoma = tested on: MALME-3M melanoma
# MDA-MB-231 breast = tested on: MDA-MB-231 breast
# MDA-MB-435 = tested on: MDA-MB-435
# OVCAR-5 ovarian = tested on: OVCAR-5 ovarian
# U251 CNS = tested on: U251 CNS
SMILES,GI50 (A549 NSCLC),TGI (A549 NSCLC),GI50 (BT-549 breast),TGI (BT-549 breast),GI50 (CCRF-CEM leukemia) [µM],TGI (CCRF-CEM leukemia),GI50 (EKVX NSCLC),TGI (EKVX NSCLC),GI50 (HCC-2998 colon),TGI (HCC-2998 colon),GI50 (MALME-3M melanoma),TGI (MALME-3M melanoma),GI50 (MDA-MB-231 breast),TGI (MDA-MB-231 breast),GI50 (MDA-MB-435),TGI (MDA-MB-435),GI50 (OVCAR-5 ovarian),TGI (OVCAR-5 ovarian),GI50 (U251 CNS),TGI (U251 CNS)
N#C[Se]CCN1C(=O)c2ccccc2C1=O,2.55 µM,8.93 µM,1.66 µM,3.53 µM,0.934,30.3 µM,2.88 µM,10.3 µM,3.87 µM,15.2 µM,1.82 µM,13.4 µM,2.74 µM,9.65 µM,1.73 µM,3.83 µM,2.24 µM,9.38 µM,2.63 µM,8.71 µM
O=S(=O)(O)C(c1ccccc1)C(O)c1ccccc1 (stereo not drawn),,> 100 µM,,> 100 µM,,> 100 µM,,> 100 µM,,,,> 100 µM,,> 100 µM,,> 100 µM,,> 100 µM,,> 100 µM
Oc1c(Br)cc(Cl)cc1C(c1cc(Cl)cc(Br)c1O)C(Cl)(Cl)Cl,3.13 µM,11.7 µM,3.22 µM,10.1 µM,0.996,9.71 µM,2.72 µM,11.3 µM,2.63 µM,8.48 µM,2.73 µM,7.78 µM,1.97 µM,5.98 µM,2.94 µM,10.1 µM,3.58 µM,13 µM,2.18 µM,10.9 µM
CN(C)c1ccc(/C=N/N=C(\C#N)[S][Sn]([Cl])([c]2ccccc2)[c]2ccccc2)cc1,2.84 µM,9.05 µM,1.57 µM,3.04 µM,0.281,1.05 µM,1.67 µM,4.12 µM,1.28 µM,2.61 µM,1.74 µM,3.6 µM,1.54 µM,3.19 µM,1.5 µM,3.01 µM,1.59 µM,3.24 µM,1.78 µM,3.2 µM
CC(C)c1ccc2c(c1)CCC1C2CCCC1(C)NCc1ccccc1 (stereo not drawn),15.5 µM,31.1 µM,8.42 µM,20.8 µM,5.32,27.9 µM,10.7 µM,24.6 µM,0.608 µM,2.01 µM,1.92 µM,4.18 µM,3.31 µM,12.4 µM,2.79 µM,9.64 µM,3.48 µM,13.6 µM,4.69 µM,15.8 µM
COc1ccccc1CNCCCN1C(=O)c2ccc3c4c(ccc(c24)C1=O)C(=O)N(CCCNCc1ccccc1OC)C3=O,0.2 µM,0.46 µM,0.348 µM,0.895 µM,0.194,2 µM,0.168 µM,0.343 µM,0.166 µM,0.328 µM,0.155 µM,0.32 µM,0.227 µM,0.867 µM,0.179 µM,0.349 µM,0.225 µM,0.597 µM,0.164 µM,0.447 µM
CNCc1cccc2c1OCCOCCOCCNS(=O)(=O)c1ccc(cc1)-c1cnc(N)c(n1)C(=O)N2,1.58 µM,4.82 µM,1.27 µM,8.14 µM,0.532,8.57 µM,2.83 µM,11.2 µM,1.79 µM,4.69 µM,1.55 µM,3.08 µM,1.38 µM,3.61 µM,1.35 µM,2.74 µM,2.72 µM,6.37 µM,0.772 µM,2.23 µM
OC[C@H]1C[C@](O)(c2ccc(F)cc2)[C@@H](c2ccc(F)cc2)O1,> 100 µM,> 100 µM,> 100 µM,> 100 µM,> 100,> 100 µM,> 100 µM,> 100 µM,> 100 µM,> 100 µM,> 100 µM,> 100 µM,> 100 µM,> 100 µM,> 100 µM,> 100 µM,> 100 µM,> 100 µM,> 100 µM,> 100 µM
O=C(NO)c1ccc(CNc2cccc3nc(C4CC4)n(-c4ccccc4)c(=O)c23)cc1,2.23 µM,5.74 µM,3.24 µM,14.3 µM,1.5,> 100 µM,2.55 µM,7.43 µM,1.81 µM,3.44 µM,2.05 µM,7.61 µM,2.31 µM,7.33 µM,1.86 µM,3.91 µM,2.06 µM,6.1 µM,1.63 µM,3.23 µM
COc1nc(N)nc2nc[nH]c12,> 800 µM and 713 µM,> 1000 µM,580 µM,500 µM and > 1000 µM,563,407 µM and 800 µM and > 920 µM,651 µM and > 759 µM,> 387 µM and 800 µM and > 1000 µM,> 800 µM and 574 µM,> 868 µM,> 800 µM and 665 µM,356 µM and > 800 µM and > 1000 µM,641 µM,500 µM and > 1000 µM,> 801 µM,> 1000 µM,401 µM and > 728 µM,491 µM and 800 µM and > 1000 µM,> 800 µM and 741 µM,500 µM and > 800 µM and > 1000 µM
CCOC(=O)C#Cc1c(C(=O)OCC)nnn1[C@@H]1O[C@H](COC)[C@@H](OC)[C@H]1OC,20.9 µM,40.4 µM,13.1 µM,26 µM,1.87,4.93 µM,16.3 µM,32.9 µM,18 µM,32.8 µM,1.95 µM,3.9 µM,10.7 µM,25.1 µM,12.1 µM,24.5 µM,16.2 µM,32.7 µM,17 µM,31.3 µM
COc1ccc([C@@H]2[C@@H](Oc3ccccc3)C(=O)N2c2cc(OC)c(OC)c(OC)c2)cc1F,0.209 µM,> 100 µM,0.0342 µM,> 100 µM,0.204,> 100 µM,0.465 µM,> 100 µM,0.524 µM,> 100 µM,> 100 µM,> 100 µM,0.298 µM,> 100 µM,0.0264 µM,0.076 µM,0.421 µM,> 100 µM,0.185 µM,> 100 µM
O=c1c(Oc2ccc(F)cc2F)cc2cnc(NC3CCOCC3)nc2n1C1CC1,> 25 µM,> 25 µM,> 25 µM,> 25 µM,> 25,> 25 µM,,,> 25 µM,> 25 µM,> 25 µM,> 25 µM,> 25 µM,> 25 µM,> 25 µM,> 25 µM,> 25 µM,> 25 µM,> 25 µM,> 25 µM
O=S(=O)(Nc1ccccc1)c1ccc(C2CC3(Cl)C(Cl)=C(Cl)C2(Cl)C3(Cl)Cl)cc1 (stereo not drawn),3.11 µM,11 µM,2.46 µM,5.85 µM,3.24,11.9 µM,3.02 µM,8.37 µM,1.81 µM,3.46 µM,2.53 µM,7.11 µM,3.44 µM,11.3 µM,2.34 µM,5.44 µM,2.36 µM,5.46 µM,2.25 µM,5.52 µM
C=C(C)c1nc(Oc2ccccc2)nc(Oc2ccccc2)n1,,38.8 µM,,13.1 µM,,9.25 µM,,32.8 µM,,8.18 µM,,27.6 µM,,28.9 µM,,22.3 µM,,30.2 µM,,23.2 µM
CNS(=O)(=O)Nc1nccc(Cc2c(C)c3ccc(Oc4ncccn4)cc3oc2=O)c1F,0.674 µM and 1.08 µM,> 100 µM,24.2 µM and > 10 µM,> 100 µM,> 100,> 100 µM,0.438 µM and 0.351 µM,> 100 µM,0.0209 µM and 0.00869 µM,> 10 µM,< 0.01 µM and 0.00211 µM,0.0401 µM and 0.0217 µM,0.549 µM and 0.313 µM,> 100 µM,0.0526 µM and 0.0395 µM,> 100 µM,0.0223 µM and 0.0145 µM,> 100 µM,17.4 µM and > 10 µM,> 100 µM
N=C(N)SCc1ccc(Cl)c2ccccc12 (tested in a mixture with another compound),,31.3 µM and 35.5 µM,,29.5 µM and 30.8 µM,,26.4 µM and 17.4 µM,,24.5 µM and 27.5 µM,,6.66 µM and 4.89 µM,,22.1 µM and 23.4 µM,,21.9 µM and 27.8 µM,,21.5 µM and 22.2 µM,,26.8 µM and 27.6 µM,,25.7 µM and 23.6 µM
O=C1NC(=O)C2C3C=CC(C12)C1C2C(=O)NC(=O)C2C31 (stereo not drawn),172 µM,250 µM and > 1000 µM,313 µM,> 1000 µM,237,250 µM and > 1000 µM,543 µM,250 µM and > 1000 µM,> 587 µM,250 µM and > 1000 µM,> 785 µM,250 µM and > 1000 µM,> 801 µM,> 1000 µM,> 250 µM,> 1000 µM,> 1000 µM,> 1000 µM,,244 µM and > 1000 µM
Nc1cc(C(F)(F)F)c(-c2nc(N3CCOCC3)nc(N3CCOCC3)n2)cn1,0.416 µM,8.62 µM,0.265 µM,3.84 µM,2.97,> 100 µM,0.31 µM,5.02 µM,0.633 µM,> 88 µM,0.0983 µM,0.561 µM,0.703 µM,40.6 µM,0.398 µM,5.15 µM,0.192 µM,> 100 µM,1.22 µM,44.2 µM
C=CCN(CC=C)Cc1c[nH]c2ccccc12,31.5 µM,> 100 µM,2.31 µM,8.33 µM,56.9,> 100 µM,,,27.8 µM,72.7 µM,7.83 µM,67.7 µM,23.4 µM,54.8 µM,10.9 µM,32.9 µM,17 µM,34.6 µM,13.2 µM,31.2 µM
O=C1NC(c2ccccc2Cl)Nc2ccccc21 (stereo not drawn),,> 100 µM,,> 100 µM,,> 81.5 µM,,> 100 µM,,> 100 µM,,> 100 µM,,> 100 µM,,4.76 µM,,> 100 µM,,> 69.7 µM
N#CC1=C(N)Oc2c(ccc3ccccc23)C1c1cc2ccccc2n2nnnc12 (stereo not drawn),3.02 µM,> 100 µM,1.61 µM,> 100 µM,0.739,> 100 µM,5.8 µM,> 100 µM,2.36 µM,> 100 µM,0.852 µM,> 100 µM,0.976 µM,> 100 µM,0.3 µM,1.01 µM,2.76 µM,> 100 µM,0.748 µM,> 100 µM
O=C(CC1(O)C(=O)Nc2c(Cl)cc(Cl)cc21)c1cccc([N+](=O)[O-])c1 (stereo not drawn),,98.9 µM,,> 100 µM,,48.2 µM,,> 100 µM,,> 70.4 µM,,35.9 µM,,64.7 µM,,16.3 µM,,> 100 µM,,> 70.8 µM
COc1ccc(-n2c(=O)c3ccccc3n(Cc3ccc(C(=O)NO)cc3)c2=O)cc1,4.1 µM,16.3 µM,2.08 µM,4.91 µM,2.8,> 100 µM,1.92 µM,4.31 µM,1.81 µM,3.58 µM,1.58 µM,5.92 µM,3.06 µM,8.63 µM,1.74 µM,3.56 µM,2.34 µM,7.56 µM,1.78 µM,3.58 µM
COc1cc(NC(=O)COc2ccccc2)c(C(N)=O)cc1OC,0.917 µM,> 100 µM,0.77 µM,> 100 µM,0.562,> 100 µM,,,3.33 µM,68.3 µM,4 µM,> 100 µM,2.39 µM,42.4 µM,0.203 µM,0.875 µM,15 µM,> 100 µM,0.777 µM,17.9 µM
OCc1ccc(N2CCc3ccc(F)cc3C2)cc1Cl,0.516 µM,19.8 µM,15.2 µM,29.3 µM,2.6,9.97 µM,,,1.7 µM,14.4 µM,12.1 µM,26.9 µM,11.7 µM,24.9 µM,8.69 µM,22 µM,0.0301 µM,0.183 µM,0.124 µM,8.57 µM
COc1ccc(Cn2c(Br)c3c(c2-c2cc(OC)c(OC)c(OC)c2)CCc2sc(N)nc2-3)cc1,2.23 µM,> 100 µM,2.39 µM,9.09 µM,0.89,4.4 µM,,,2.93 µM,12.3 µM,0.438 µM,28.5 µM,1.92 µM,7.1 µM,0.224 µM,0.537 µM,4.26 µM,> 100 µM,1.3 µM,12.7 µM
